Series [1] concerns rat model of polycystic kidney disease (PCK). Briefly: uricase inhibition by oxonic acid in rat model of polycystic kidney disease (FIG. 6A). It counts as in vivo. The protocol: (§1) FIG. 6: provides data showing that uricase inhibition by oxonic acid (OXO) and commensurate increased uric acid is associated with increased total kidney to body weight ratio (2K/BWT) in a rat model of polycystic kidney disease (PCK) and in a mouse model of polycystic kidney disease (Pkd1RC/RC). Rodent models of polycystic kidney disease were treated with a uricase enzyme inhibitor—oxonic acid (OXO)—to decrease the metabolism of uric acid to allantoin, thereby chronically increasing circulating serum uric acid concentration. […] Increased serum uric acid is associated with structural and functional changes in kidney function. Increased creatinine is associated with decreased filtering capacity of kidneys. disease.

In series [2] the test system is mouse model of polycystic kidney disease (Pkd1RC/RC). Description: uricase inhibition by oxonic acid in mouse model of polycystic kidney disease (FIG. 6B). The class given is in vivo. The protocol: as §1
Series [3] concerns rodent model of polycystic kidney disease. Description: uricase inhibition by oxonic acid, kidney function in rodent model of polycystic kidney disease (FIG. 7). It counts as in vivo.
In series [4] the test system is rodent model of polycystic kidney disease—mouse RC/RC. Description: oxonic acid exposure with or without OXY+L in mouse RC/RC, kidney size (FIG. 9). The class given is in vivo. The note with it: oxonic acid (OXO) exposure alone. The text has this: FIG. 9: is a graph showing that in a rodent model of polycystic kidney disease—mouse RC/RC-oxonic acid (OXO) exposure increased kidney size.

A short description of series [5]: oxypurinol solubility with and without metformin. It counts as physicochemical. The text has this:
The term “organic base” as used herein refers to the organic base may be (a) a Class 1 base with a pKa1 between about 7 to 13 including but not limited to L-arginine, D-arginine, choline, L-lysine, D-lysine, and caffeine. In an alternative embodiment, the organic base is a biguanide (U.S. Pat. No. 9,480,663) or biguanidine such as metformin, phenformin, buformin or a salts thereof. It is noted that metformin has multiple beneficial effects in the context of compositions and methods described herein. First, it can act as a solubilizing agent for oxypurinol to increase oral bioavailablity. Secondarily, it can act as an alkalinizing agent. Thirdly, metformin here can act as a uric acid solubilizing agent. […] The gliflozin family of SGLT2 inhibitors are also basic and can serve as an organic base in accord with the teachings herein.

Setting [6] is: 8 weeks of treatment with oxonic acid, compared to untreated animals.
The mark [7] stands for this setting: PCK rat, after 70 days exposure to oxonic acid, P<0.05.
Setting [8] is: Pkd1RC/RC mouse, after 70 days exposure to oxonic acid, P<0.05.

Converted amounts (≈) assume the structure as drawn.

Regarding `O=C(O)c1nc(=O)[nH]c(=O)[nH]1` [oxonic acid], the total kidney volume result in series [1] (setting [6]) and in series [2] (setting [6]) was “increased significantly” each time. The serum uric acid entry in series [1] (PCK rat, after 70 days exposure to oxonic acid) is on record as “increased”; in series [2] (Pkd1RC/RC mouse, after 70 days exposure to oxonic acid) it was “increased”. Besides, the cyst size result in series [1] (setting [7]) and in series [2] (setting [8]) was “increased” throughout. The “total kidney to body weight ratio (2K/BWT)” value in series [1] (setting [7]) and in series [2] (setting [8]) was “increase” throughout. For the same molecule, the serum creatinine entry in series [1] (PCK rat, after 70 days exposure to oxonic acid, P<0.07) is listed as “increased”; in series [2] (setting [8]), “increased”. Further, the “creatinine in serum (kidney function)” value in series [3] is reported as “increased”. In addition, the kidney size result in series [4] is “increased”.

As to `O=c1[nH]c(=O)c2c[nH]nc2[nH]1` [oxypurinol], the solubility (usually how much of the substance goes into solution per volume) in series [5] (1:01 to 1:10 ratio of oxypurinol to metformin) is at least 16800 µg/mL; in series [5] (without metformin (starting value)) it was 200 µg/mL (≈ 1310 µM).

The record behind these values is patent US20250052754A1, “COMPOSITIONS AND METHODS FOR DIAGNOSIS, TREATMENT OF AND PREVENTION OF KIDNEY DISEASE” (XORTX THERAPEUTICS, INC., priority 2021, published 2025).
